Results as given in patent US12083082B2, “Methods for treating neurodegenerative disorders” (Alzheon, Inc., priority 2018, dated 2024).

Tests used:
[1] = molecular target: T1, recombinant human Aβ42 peptide (Homo sapiens, UniProt P05067); experiment: Ion mobility mass spectrometry (IMS MS) anti-Aβ42 oligomer activity / binding study; type: biochemical; set-up: key to Presence of Aβ42 Pentamer / Presence of Aβ42 Hexamer / Presence of Aβ42 Decamer / Presence of Aβ42 Dimer / Presence of Aβ42 Trimer / Presence of Aβ42 Tetramer: Y = yes, presence of oligomer species; N = no presence of oligomer species
T1 construct: recombinant human Aβ42 peptide; purchased BioLegend 843801
T1 sequence (P05067 672-713 limits assumed): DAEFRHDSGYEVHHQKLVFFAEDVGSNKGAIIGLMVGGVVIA
Procedure: The conditions used for mass spectrometry, using a Waters Synapt G2-S, were as follows: positive polarity in sensitivity mode, capillary=2.5 kV, nebulizer=2 mbar, source temperature=80° C., desolvation temperature=60° C., sample cone setting=35 V, source offset setting=60 V, and mass range=500 to 4000 m/z. These conditions were maintained throughout the study to ensure consistency of the data and to avoid influencing the detection of oligomers due to preferential ionization conditions.
Samples were directly infused into the mass spectrometer at a flow rate of 10 μL/min using a Protea PM-1000 Syringe Pump and Hamilton 1 mL Syringe. The data acquisition of the amyloid peptide was performed using a Waters Synapt G2-S quadrupole time of flight mass spectrometer (Q-TOF MS) with traveling wave ion mobility (Waters Corp., Milford, MA). The data were acquired using the systems sensitivity mode to allow for the detection of the less abundant oligomers. Samples were infused at room temperature. The IMS MS studies were conducted at Protea, Inc. (Morgantown, WV).
1 mg of recombinant human Aβ42 peptide from BioLegend (99% purity, cat #843801) was reconstituted in 200 μL of Fisher Optima LC/MS grade water (cat #W6-1) and vortexed vigorously for 2 minutes to solubilize the peptide creating a 5 mg/mL solution. Samples were then diluted to a final concentration of 22 pmol/μL prior to incubation. The sample mixtures were then incubated at room temperature for 0, 4 and 24 hours. After the acquisition of incubated samples was completed, the raw data were analyzed using the Waters MassLynx v2.4 suite with DriftScover v2.7 to visualize drift times for the peptide.
Aβ42 species characterization using IMS MS was performed by direct infusion at 22 pmol/μL in water. The peptide was prepared in water to maintain the native state conformation of the peptide and ion mobility data acquisition was performed to detect and characterize the conformational changes of the native state monomer and any oligomers that may have formed during the incubation.
The data acquisition for Aβ42 peptide was performed using a Waters Synapt G2-S quadrupole time of flight mass spectrometer (Q-TOF MS) with traveling wave ion mobility (Waters Corp., Milford, MA). The data were acquired using the systems sensitivity mode to allow for the detection of the less abundant oligomers. Samples were infused at room temperature as above.
1 mg of 3-SPA was reconstituted in 1 mL of Fisher Optima LC/MS grade water (cat #W6-1) and vortexed vigorously for 2 minutes until completely dissolved. The sample was then diluted to create […], and 22,000 pmol/μL solutions to perform a 100-fold, and 1,000-fold molar excess for the binding experiments with Aβ42 peptide.
1 mg of recombinant human Aβ42 peptide was reconstituted in 200 μL of Fisher Optima LC/MS grade water and vortexed vigorously to solubilize to a 5 mg/mL solution. Samples were then diluted to their final concentrations prior to incubation. The sample mixtures were incubated at room temperature for 0, 4 and 24 hours, followed by analysis as described above.
To address the high conformational flexibility of Aβ42 and to characterize its interaction with 3-SPA, we used ion mobility mass spectrometry (IMS), with a quadrupole time of flight mass spectrometer (Q-TOF MS) with traveling wave ion mobility. Resulting effect of modulation of Aβ conformational space is the prevention of oligomer formation. We have found not only concentration dependency but also time-dependency of this anti-Aβ42 oligomeric effect of 3-SPA as indicated in FIG. 3 and FIG. 4. 100- vs 1,000-fold molar excess of 3-SPA over Aβ42 results in a different sub-species profile of inhibition of Aβ42 oligomer formation. The activity is also compared with the same excess dependency of tramiprosate.

[2] = cited from earlier work
[3] = in vivo; settings: rat, po
Source text: ALZ-801 is a valine conjugate of tramiprosate that has been optimized for improved pharmacokinetic properties and gastrointestinal tolerability. Chronic toxicology studies required for the advancement of ALZ-801 to Phase 3 have been completed, including the nonclinical safety characterization of ALZ-801, and the safety bridge to the extensive nonclinical toxicology and safety data for tramiprosate. […] See Hey et al., Clinical Pharmacokinetics and Safety of ALZ-801, a Novel Prodrug of Tramiprosate in Development for the Treatment of Alzheimer's Disease. Clin Pharmacokinetics 2018; 315-333 and Kocis et al., Elucidating the Abeta42 Anti-Aggregation Mechanism of Action of Tramiprosate in Alzheimer's Disease: Integrating Molecular Analytical Methods. Pharmacokinetic and Clinical Data. CNS Drugs 2017; 31:495-509. […] Both ALZ-801 and tramiprosate have consistent elimination half-life in plasma across species following repeated oral doses of ALZ-801, indicating no potential for accumulation after chronic dosing. Following conversion of ALZ-801 to tramiprosate, tramiprosate is consistently metabolized in vivo into a single major metabolite, 3-sulfopropanoic acid (3-SPA), in humans, mice, rats, dogs and minipigs.

[4] = 100:1 excess ratio compound:protein
[5] = 1000:1 excess ratio compound:protein

SMILES	Presence of Aβ42 Decamer [1, 4]	Presence of Aβ42 Dimer [1, 4]	Presence of Aβ42 Hexamer [1, 4]	Presence of Aβ42 Pentamer [1, 4]	Presence of Aβ42 Tetramer [1, 4]	Presence of Aβ42 Trimer [1, 4]	Presence of Aβ42 Decamer [1, 5]	Presence of Aβ42 Dimer [1, 5]	Presence of Aβ42 Hexamer [1, 5]	Presence of Aβ42 Pentamer [1, 5]	Presence of Aβ42 Tetramer [1, 5]	Presence of Aβ42 Trimer [1, 5]	Inhibition of formation of Aβ42 oligomers (in words) ([1]; 24 hours incubation, 1,000-fold excess)	Safety profile (in words) ([2]; Phase 3 trials and safety extension, exposures of up to 2.5 years)	Effect on cognition (in words) ([2]; subgroup analysis of subjects with the ε4 allele of APOE (APOE4))	NOAEL at 1 month [3]	NOAEL at 6 month [3]	Tolerability (in words) [3]
NCCCS(=O)(=O)O [Tramiprosate, 3-amino-1-propanesulfonic acid, reference compound]	N	N	Y	Y	Y	Y	N	N	N	N	N	N	complete inhibition of formation of Aβ42 oligomers	favorable safety profile	positive and clinically meaningful benefit on cognition	–	–	–
CC(C)[C@H](N)C(=O)NCCCS(=O)(=O)O [ALZ-801]	–	–	–	–	–	–	–	–	–	–	–	–	–	–	–	2000 mg/kg	1500 mg/kg	well tolerated
